Source: patent US7872036B2, “3-triazolylphenyl sulfide derivative and insecticide, miticide and nematicide containing it as an active ingredient” (Kumiai Chemical Industry Co., Ltd., priority 2004, dated 2011)

Legend:
two-spotted spider mites [1] = experiment: Miticidal test on two-spotted spider mites (by dipping); type: in vivo, Tetranychus urticae; design: scale not given here; conditions: dipping of soybean seedlings, active ingredient 500 ppm, 25° C., 13 days
Protocol: (§1) Wettable powders were prepared in accordance with Formulation Example 2 and diluted with water to an active ingredient concentration of 500 ppm. Soybean seedlings which had been inoculated with imago two-spotted spider mites were dipped in the resulting solutions and dried in air. The treated seedlings were placed in a thermostatic chamber at 25° C. for 13 days, and the mite survivors were counted for calculation of the miticidal value by using Equation 2. The test was carried out by one series system.

two-spotted spider mites [2] = experiment: Miticidal test on two-spotted spider mites (by soil drenching); type: in vivo, Tetranychus urticae; design: scale not given here; conditions: active ingredient 100 ppm, 5 ml per 100 g soil, 25° C., 13 days
Protocol: as §1, with “100” for “500”, “100 g of the soil in cups with soybean” for “Soybean”, “drenched with 5 ml of” for “dipped in”, “solutions.” for “solutions and dried in air.”, “[…]” for “thermostatic”, “2.” for “2. The test was carried out by one series system.”

brown planthoppers = experiment: Insecticidal test on brown planthoppers; type: in vivo, Nilaparvata lugens; conditions: active ingredient 500 ppm, germinating rice immersed, 4th-instar larvae, 25° C., 6 days
Protocol: Wettable powders were prepared in accordance with Formulation Example 2 and diluted with water to an active ingredient concentration of 500 ppm. Germinating rice was immersed in the resulting solutions and put in a plastic cup with a capacity of 60 ml. Ten 4th-instar larvae of brown planthoppers were released to the cup, and the cup was covered and placed in a thermostatic chamber at 25° C. for 6 days, and the survivors were counted for calculation of the insecticidal degree by using Equation 1. The test was carried out by one series system.

[3] = tested on: southern root-knot nematodes; experiment: Nemastatic test on southern root-knot nematodes; type: in vivo, Meloidogyne sp.; conditions: diluted solution 20 ppm mixed 1:1 with suspension of second stage larvae, 25° C., 5 days
Protocol: Compounds of the present invention (5 parts) and Tween 20 (tradename for polyoxyethylene sorbitan monolaurate) (1 part) as a spreader were dissolved n N,N-dimethylformamide (94 parts) to prepare 5% emulsifiable concentrates of the compounds of the present invention. Distilled water was added to the emulsifiable concentrates to prepare diluted solutions having a concentration of the compounds of the present invention of 20 ppm. 0.5 ml of the diluted solutions and 0.5 ml of water suspensions containing 100 second stage larvae of southern root-knot nematodes were mixed, and the mixture were placed in a thermostatic chamber at 25° C. for 5 days, and the survivors were counted for calculation of the nemastatic degree by using Equation 3. The test was carried out by two series system.

Compound: Cc1cc(F)c(-n2nc(SC(F)(F)C(F)(F)F)nc2N)cc1[S+]([O-])CC(F)(F)F (racemic) [Compound 177]
- Miticidal value (two-spotted spider mites [1]): 100
- Miticidal value (two-spotted spider mites [2]): 100

Compound: CNC(=O)Nc1nc(C(F)(F)F)nn1-c1cc([S+]([O-])CC(F)(F)F)c(C)cc1F (centres unmarked) [Compound 169]
- Miticidal value (two-spotted spider mites [1]): 100
- Miticidal value (two-spotted spider mites [2]): 100
- Insecticidal degree (%) (brown planthoppers): 100%

Compound: CC(=O)Nc1nc([S+]([O-])CC(F)(F)F)nn1-c1cc([S+]([O-])CC(F)(F)F)c(C)cc1F (centres unmarked) [Compound 157]
- Miticidal value (two-spotted spider mites [1]): 100
- Miticidal value (two-spotted spider mites [2]): 100
- Insecticidal degree (%) (brown planthoppers): 100%

Compound: Cc1cc(F)c(-n2nc(C(C)(C)C)nc2N)cc1[S+]([O-])CC(F)(F)F (centres unmarked) [Compound 145]
- Miticidal value (two-spotted spider mites [1]): 100
- Miticidal value (two-spotted spider mites [2]): 100

Compound: CNc1nc(C(F)(F)F)nn1-c1ccc(C)c(SCC(F)(F)F)c1 [Compound 37]
- Miticidal value (two-spotted spider mites [1]): 100
- Miticidal value (two-spotted spider mites [2]): 100
- Insecticidal degree (%) (brown planthoppers): 100%

Compound: Cc1cc(F)c(-n2nc(C(F)(F)F)nc2NC(=O)C(F)(F)F)cc1SCC(F)(F)F [Compound 5, [5-(5-trifluoroacetylamino-3-trifluoromethyl-1,2,4-triazolyl)-4-fluoro-2-methylphenyl]2,2,2-trifluoroethyl sulfide]
- Miticidal value (two-spotted spider mites [1]): 100
- Miticidal value (two-spotted spider mites [2]): 100
- Insecticidal degree (%) (brown planthoppers): 100%

Compound: CCC(=O)Nc1nc(C(F)(F)F)nn1-c1cc([S+]([O-])CC(F)(F)F)c(C)cc1F (racemic) [Compound 187]
- Miticidal value (two-spotted spider mites [1]): 100
- Miticidal value (two-spotted spider mites [2]): 99
- Insecticidal degree (%) (brown planthoppers): 100%

Compound: CC(=O)Nc1nc(C(F)(F)F)nn1-c1cc(SCC(F)(F)F)c(C)cc1F [Compound 75]
- Insecticidal degree (%) (brown planthoppers): 100%
- Nemastatic degree (%) [3]: 94%

Compound: Cc1cc(F)c(-n2nc(SCC#N)nc2N)cc1[S+]([O-])CC(F)(F)F (centres unmarked) [Compound 141]
- Insecticidal degree (%) (brown planthoppers): 100%
- Nemastatic degree (%) [3]: 97%

Compound: [O-][S+](CC(F)(F)F)c1cc(-n2cnc(C(F)(F)F)n2)ccc1CF (centres unmarked) [b, reference compound]
- Miticidal value (two-spotted spider mites [1]): 99
- Miticidal value (two-spotted spider mites [2]): 0

Compound: Cc1cc(F)c(-n2nc(C(F)(F)F)nc2N(C)N)cc1SCC(F)(F)F [Compound 170]
- Insecticidal degree (%) (brown planthoppers): 100%
- Nemastatic degree (%) [3]: 100%

Compound: C#CCNc1nc(SCC(F)(F)F)nn1-c1cc([S+]([O-])CC(F)(F)F)c(C)cc1F (racemic) [Compound 185]
- Miticidal value (two-spotted spider mites [1]): 100
- Miticidal value (two-spotted spider mites [2]): 100
- Insecticidal degree (%) (brown planthoppers): 100%

Compound: C#CCSc1nc(N)n(-c2cc(SCC(F)(F)F)c(C)cc2F)n1 [Compound 148]
- Insecticidal degree (%) (brown planthoppers): 100%
- Nemastatic degree (%) [3]: 99%

Compound: Cc1cc(F)c(-n2nc(C(F)(F)F)nc2NC(=O)NC(C)C)cc1[S+]([O-])CC(F)(F)F (racemic) [Compound 202]
- Miticidal value (two-spotted spider mites [1]): 100
- Miticidal value (two-spotted spider mites [2]): 100
- Insecticidal degree (%) (brown planthoppers): 100%

Compound: CCC(C)(C)c1nc(N)n(-c2cc([S+]([O-])CC(F)(F)F)c(C)cc2F)n1 (centres unmarked) [Compound 119]
- Miticidal value (two-spotted spider mites [1]): 100
- Miticidal value (two-spotted spider mites [2]): 100
- Insecticidal degree (%) (brown planthoppers): 90%

Compound: Cc1cc(F)c(-n2nc(C(C)(C)C#N)nc2N)cc1[S+]([O-])CC(F)(F)F (centres unmarked) [Compound 104]
- Miticidal value (two-spotted spider mites [1]): 100
- Miticidal value (two-spotted spider mites [2]): 100

Compound: Cc1cc(F)c(-n2nc(SC(F)F)nc2N)cc1[S+]([O-])CC(F)(F)F (centres unmarked) [Compound 28]
- Miticidal value (two-spotted spider mites [1]): 100
- Miticidal value (two-spotted spider mites [2]): 100
- Insecticidal degree (%) (brown planthoppers): 100%

Compound: O=Cc1ccc(-n2cnc(C(F)(F)F)n2)cc1[S+]([O-])CC(F)(F)F (centres unmarked) [a, reference compound]
- Miticidal value (two-spotted spider mites [1]): 100
- Miticidal value (two-spotted spider mites [2]): 0

Compound: CC(=O)Nc1nc(C(F)(F)F)nn1-c1cc([S+]([O-])CC(F)(F)F)c(C)cc1F (centres unmarked) [Compound 76]
- Miticidal value (two-spotted spider mites [1]): 100
- Miticidal value (two-spotted spider mites [2]): 100
- Insecticidal degree (%) (brown planthoppers): 100%

Compound: Cc1cc(C)c([S+]([O-])CC(F)(F)F)cc1-n1nc(C(F)(F)F)nc1N (centres unmarked) [Compound 56]
- Miticidal value (two-spotted spider mites [1]): 100
- Miticidal value (two-spotted spider mites [2]): 100

Compound: COC(=O)Nc1nc(C(F)(F)F)nn1-c1cc([S+]([O-])CC(F)(F)F)c(C)cc1F (centres unmarked) [Compound 80]
- Miticidal value (two-spotted spider mites [1]): 100
- Miticidal value (two-spotted spider mites [2]): 100
- Insecticidal degree (%) (brown planthoppers): 100%
